What was measured:
velvetleaf = assay: Test B pre-/postemergence herbicide test; type: in vivo, Abutilon theophrasti; conditions: for Velvetleaf plant response rating: postemergence
Method in brief: (§1)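 Pre: seeds sown, then sprayed. Post: 1–4-leaf plants (2–18 cm) sprayed at the same time. Paddy: flooded, treated at 2-leaf stage. Formulation: non-phytotoxic solvent with surfactant. Greenhouse 13–15 days; visual 0–100 score relative to controls.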

morningglory = assay: Test B pre-/postemergence herbicide test; type: in vivo, Ipomoea coccinea; conditions: for Morningglory plant response rating: postemergence
Method in brief: (§2)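 Evaluation is visual, comparing treated with control plants on a scale where 0 means no effect and 100 means full control. Treatments were preemergence, or postemergence on seedlings 2–18 cm tall, and held 13–15 days in the greenhouse.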

wheat = assay: Test B postemergence herbicide test; type: in vivo, Triticum aestivum; parameters: key to Wheat plant response rating: 0 = no effect, 100 = complete control; conditions: postemergence
Method in brief: (§3)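 Each value is a visual 0–100 response rating taken against controls 13 to 15 days after treatment in the greenhouse. Plants received formulated chemical postemergence at the 1- to 4-leaf stage or, in flooded paddy, at the 2-leaf stage.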

large crabgrass = assay: Test B pre-/postemergence herbicide test; type: in vivo, Digitaria sanguinalis; conditions: for Crabgrass, Large plant response rating: postemergence
Method in brief: as §1

wild oat = assay: Test B postemergence herbicide test; type: in vivo, Avena fatua; conditions: postemergence
Method in brief: as §3

ducksalad [1] = assay: Test C flooded paddy test; type: in vivo, Heteranthera limosa
barnyardgrass [2] = assay: Test B pre-/postemergence herbicide test; type: in vivo, Echinochloa crus-galli; conditions: for Barnyardgrass plant response rating: postemergence
Method in brief: as §2

pigweed = assay: Test B pre-/postemergence herbicide test; type: in vivo, Amaranthus retroflexus; conditions: for Pigweed plant response rating: postemergence
Method in brief: as §1

corn = assay: Test B pre-/postemergence herbicide test; type: in vivo, Zea mays; conditions: for Corn plant response rating: postemergence
Method in brief: as §1

[3] = tested on: small flower umbrella sedge; assay: Test B flooded paddy test; type: in vivo, Cyperus difformis; conditions: 1000 g ai/ha, scale 0 to 100 (0 no effect, 100 complete control)
Method in brief: as §3

barnyardgrass [4] = assay: Test B flooded paddy test; type: in vivo, Echinochloa crus-galli; conditions: 1000 g ai/ha, scale 0 to 100 (0 no effect, 100 complete control)
Method in brief: as §3

blackgrass = assay: Test B postemergence herbicide test; type: in vivo, Alopecurus myosuroides; conditions: postemergence
Method in brief: as §3

Surinam grass = assay: Test B pre-/postemergence herbicide test; type: in vivo, Urochloa decumbens; conditions: for Surinam Grass plant response rating: postemergence
Method in brief: as §1

lambsquarters = assay: Test B pre-/postemergence herbicide test; type: in vivo, Chenopodium album; conditions: for Lambsquarters plant response rating: postemergence
Method in brief: as §1

[5] = tested on: smallflower umbrella sedge; assay: Test C flooded paddy test; type: in vivo, Cyperus difformis
rice [6] = assay: Test B pre-/postemergence herbicide test; type: in vivo, Oryza sativa; conditions: 0 = no effect, 100 = complete control, preemergence
Method in brief: as §1

cocklebur = assay: Test B pre-/postemergence herbicide test; type: in vivo, Xanthium strumarium; conditions: for Cocklebur plant response rating: postemergence
Method in brief: as §2

ducksalad [7] = assay: Test B flooded paddy test; type: in vivo, Heteranthera limosa; conditions: 1000 g ai/ha, scale 0 to 100 (0 no effect, 100 complete control)
Method in brief: as §3

rice [8] = assay: Test C flooded paddy test; type: in vivo, Oryza sativa
Method in brief: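 Plants were grown to the 1- to 4-leaf stage (2–18 cm) and then treated postemergence, or grown to the 2-leaf stage for the flooded paddy test. They were held in a greenhouse for 12 to 14 days and then scored by eye against controls, where 0 is no effect and 100 is complete control.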

barnyardgrass [9] = assay: Test C flooded paddy test; type: in vivo, Echinochloa crus-galli
Method in brief: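 Ratings (0 = no effect, 100 = complete control) come from visual comparison with untreated plants after 12 to 14 days in the greenhouse. Treatment was postemergence at the 1- to 4-leaf stage (2–18 cm), or at the 2-leaf stage for the flooded paddy barnyardgrass.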

rice [10] = assay: Test B flooded paddy test; type: in vivo, Oryza sativa; conditions: 1000 g ai/ha, scale 0 to 100 (0 no effect, 100 complete control)
Method in brief: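 Plants grow to 1- to 4-leaf stage (2–18 cm) for postemergence spraying, or to 2-leaf stage for the paddy test. Formulated compound is applied. Greenhouse holding lasts 13–15 days. Response is scored visually relative to controls, 0 no effect to 100 complete control; a dash means no result.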

giant foxtail = assay: Test B pre-/postemergence herbicide test; type: in vivo, Setaria faberi; conditions: for Foxtail, Giant plant response rating: postemergence
Method in brief: as §1

[11] = 125 g ai/ha, visual rating, scale 0 (no effect) to 100 (complete control)
[12] = 500 g ai/ha, visual rating, 0 = no effect, 100 = complete control, preemergence
[13] = 500 g ai/ha, scale 0 to 100, 0 is no effect, 100 is complete control
[14] = 125 g ai/ha, 0 = no effect, 100 = complete control, preemergence
[15] = 125 g ai/ha, scale 0 to 100 (0 no effect, 100 complete control)
[16] = 250 g ai/ha, scale of 0 to 100, 0 is no effect, 100 is complete control
[17] = 500 g ai/ha, visual rating after 12 to 14 days, scale 0 to 100 (0 no effect, 100 complete control)

CCN(CC)C(=O)c1ccc(F)c(NC(=O)C2CC(C(C)(C)C)=NN2CC)c1 (racemic) [Compound 308]
Velvetleaf plant response rating (velvetleaf; [11]): 10
Plant response rating, Velvetleaf (velvetleaf; [12]): 100
Velvetleaf plant response rating (velvetleaf; [13]): 20
Morningglory plant response rating (0 to 100 scale) (morningglory; [14]): 0
Morningglory plant response rating (morningglory; [11]): 0
Plant response rating, Morningglory (morningglory; [12]): 10
Morningglory plant response rating (morningglory; [13]): 20
Wheat plant response rating (wheat; [11]): 10
Wheat plant response rating (wheat; [13]): 20
Crabgrass, Large plant response rating (0 to 100 scale) (large crabgrass; [14]): 40
Crabgrass, Large plant response rating (large crabgrass; [11]): 0
Plant response rating, Crabgrass, Large (large crabgrass; [12]): 70
Crabgrass, Large plant response rating (large crabgrass; [13]): 10
Oat, Wild plant response rating (wild oat; [11]): 10
Oat, Wild plant response rating (wild oat; [13]): 20
Ducksalad plant response rating (ducksalad [1]; 62 g ai/ha, scale 0 to 100): 0
Ducksalad plant response rating (ducksalad [1]; [15]): 0
Ducksalad plant response rating (ducksalad [1]; [16]): 15
Plant response rating, Ducksalad (ducksalad [1]; [17]): 75
Barnyardgrass plant response rating (0 to 100 scale) (barnyardgrass [2]; [14]): 20
Barnyardgrass plant response rating (barnyardgrass [2]; [11]): 0
Plant response rating, Barnyardgrass (barnyardgrass [2]; [12]): 80
Barnyardgrass plant response rating (barnyardgrass [2]; [13]): 10
Pigweed plant response rating (0 to 100 scale) (pigweed; [14]): 80
Pigweed plant response rating (pigweed; [11]): 60
Plant response rating, Pigweed (pigweed; [12]): 100
Pigweed plant response rating (pigweed; [13]): 70
Corn plant response rating (0 to 100 scale) (corn; [14]): 20
Corn plant response rating (corn; [11]): 0
Plant response rating, Corn (corn; [12]): 70
Corn plant response rating (corn; [13]): 10
Sedge, Umbrella plant response rating [3]: 90
Barnyardgrass plant response rating (barnyardgrass [4]): 90
Blackgrass plant response rating (blackgrass; [11]): 10
Blackgrass plant response rating (blackgrass; [13]): 30
Surinam Grass plant response rating (0 to 100 scale) (Surinam grass; [14]): 20
Surinam Grass plant response rating (Surinam grass; [11]): 10
Plant response rating, Surinam Grass (Surinam grass; [12]): 60
Surinam Grass plant response rating (Surinam grass; [13]): 20
Lambsquarters plant response rating (0 to 100 scale) (lambsquarters; [14]): 100
Lambsquarters plant response rating (lambsquarters; [11]): 50
Plant response rating, Lambsquarters (lambsquarters; [12]): 100
Lambsquarters plant response rating (lambsquarters; [13]): 60
Sedge, Umbrella plant response rating ([5]; 62 g ai/ha, scale 0 to 100): 0
Sedge, Umbrella plant response rating [5, 15]: 25
Sedge, Umbrella plant response rating [5, 16]: 70
Plant response rating, Sedge, Umbrella [5, 17]: 80
Rice plant response rating (0 to 100 scale) (rice [6]; 125 g ai/ha): 20
Plant response rating, Rice (rice [6]; 500 g ai/ha, visual rating): 50
Cocklebur plant response rating (0 to 100 scale) (cocklebur; [14]): 0
Cocklebur plant response rating (cocklebur; [11]): 0
Plant response rating, Cocklebur (cocklebur; [12]): 0
Cocklebur plant response rating (cocklebur; [13]): 40
Ducksalad plant response rating (ducksalad [7]): 90
Rice plant response rating (rice [8]; 62 g ai/ha, scale 0 to 100): 15
Rice plant response rating (rice [8]; [15]): 25
Rice plant response rating (rice [8]; [16]): 65
Plant response rating, Rice (rice [8]; [17]): 70
Barnyardgrass plant response rating (barnyardgrass [9]; 62 g ai/ha, scale 0 to 100 (0 no effect, 100 complete control)): 0
Barnyardgrass plant response rating (barnyardgrass [9]; [15]): 0
Barnyardgrass plant response rating (barnyardgrass [9]; [16]): 25
Plant response rating, Barnyardgrass (barnyardgrass [9]; [17]): 65
Rice plant response rating (rice [10]): 70
Foxtail, Giant plant response rating (0 to 100 scale) (giant foxtail; [14]): 10
Foxtail, Giant plant response rating (giant foxtail; [11]): 10
Plant response rating, Foxtail, Giant (giant foxtail; [12]): 90
Foxtail, Giant plant response rating (giant foxtail; [13]): 20
